Experimental data as given in patent publication US20080260753A1, “Mouse Models of Crohn's Disease and a Method to Develop Specific Therapeutics” (priority 2004, published 2008).

Tests used:
WT and Nod2^2939iC mice = experiment: DSS colitis with IL-1RA or antibiotic treatment, body weight, survival and histological scoring; type: in vivo; conditions: for mortality: 3% DSS for 6 days, by 10 days after DSS exposure
Experimental: DSS colitis, IL-1RA treatment and histological scoring. Mice (8-12 weeks old) were given DSS (ICN Biomedicals Inc.) in the drinking water for 6 days as indicated and placed on regular water thereafter. When indicated, mice were also treated with neomycin sulfate (1.5 g/L) and metronidazole (1.5 g/L) (both from Sigma) in the drinking water or injected i.p. with either IL-1RA (Kineret®, Amgen Inc.) (100 mg/kg) in PBS or PBS alone once daily throughout the experiment. […] Histological scoring of fixed (10% formaldehyde) and sectioned (paraffin embedded) tissue was performed in a blinded manner. The scores were: 0=normal, 1=moderate mucosal inflammation without ulcer, 2=severe mucosal inflammation with ulcer (<1 mm) or no ulcer, 3=severe mucosal inflammation with ulcer (1-3 mm), 4=severe mucosal inflammation with ulcer (>3 mm).

[1] = test system: BMDMs from WT and Nod2^2939iC (m/m) mice; experiment: Cytokine secretion by stimulated BMDMs (ELISA, immunoblotting); type: cell-based, mouse
Experimental: Macrophage culture and treatment. BMDMs were cultured as described (Park et al., Science 297: 2048, 2002). Confluent cultures were treated with different bacterial components including MDP (Bachem), synthetic peptidoglycan-Pam3Cys (InvivoGen), natural gram positive peptidoglycan (from S. aureus, Sigma), LPS (from E. coli, Sigma), and CpG-DNA (TIB MOLBIOL). At the indicated time points the cells or culture supernatants were collected and used to prepare cytoplasmic and nuclear protein extracts or total cellular RNA.
Gene expression analyses. Protein lysates were prepared from tissues and cultured macrophages, separated by SDS-polyacrylamide gel electrophoresis, transferred to Immobilon membranes (Millipore) and analyzed by immunoblotting. Total cellular RNA was extracted using TRIZOL (Invitrogen). cDNA was generated using SuperScript II (Invitrogen) and the amounts of the different mRNAs were measured by real-time PCR using GAPDH mRNA for normalization. Primer sequences are available upon request. Cytokine levels were measured using enzyme linked immunoadsorbent assays (ELISA).

Molecule: dextran sodium sulfate [DSS]
- mortality (WT and Nod2^2939iC mice; Nod2^2939iC mice (n=16)): 37.5%
- mortality (WT and Nod2^2939iC mice; WT mice (n=19)): 0%
- time to death after DSS administration (WT and Nod2^2939iC mice; 6% DSS without oral antibiotics, WT and Nod2^2939iC mice): ≤ 9 days

Molecule: IL-1RA: IL-1 receptor antagonist (IL-1RA) (Kineret®, Amgen Inc.)
- Average body weight loss (WT and Nod2^2939iC mice; 3% DSS in drinking water for 6 days, IL-1RA 100 mg/kg i.p. once daily from the start of DSS exposure, WT and Nod2^2939iC mice): improved
- differences in weight loss and inflammatory score between the genotypes (WT and Nod2^2939iC mice; 3% DSS plus IL-1RA 100 mg/kg/day, WT vs Nod2^2939iC mice): abolished
- histological score (WT and Nod2^2939iC mice; 11 days after initiation of 3% DSS, IL-1RA 100 mg/kg/day i.p., WT and Nod2^2939iC mice): improved
- colon histology: inflammation and ulceration compared to DSS alone (WT and Nod2^2939iC mice; 11 days after initiation of DSS plus IL-1RA (100 mg/kg/day), WT and Nod2^2939iC mice): decreased inflammation and ulceration

Molecule: CC(=O)N[C@H]1C(O)O[C@H](CO)[C@@H](O)[C@@H]1O[C@H](C)C(=O)N[C@@H](C)C(=O)N[C@H](CCC(=O)O)C(N)=O (mixture of isomers) [MDP, muramyl dipeptide]
- IL-6 secretion ([1]; BMDMs stimulated with MDP): neither IL-6 nor TNFα were secreted
- release of mature IL-1β ([1]; Nod2^2939iC macrophages, MDP 1 μg/ml, 24 hrs): stimulated release of mature IL-1β
